Here are results for 37 compounds from patent publication US7115750B1, “Melanin concentrating hormone antagonist” (Takeda Pharmaceutical Company Limited, priority 1999, dated 2006).

For orientation: melting point means the temperature of the solid-liquid transition.

Structures can show the parent of a compound that is named as a salt.

`CN(C)CC1=Cc2ccc(NC(=O)c3ccc(-c4ccccc4)cc3)cc2C1` (hydrate or solvate) [Example 244, N-[2-[(Dimethylamino)methyl]-1H-inden-6-yl][1,1′-biphenyl]-4-carboxamide]: the melting point fell in the range of 187 to 189 °C.
With `CN(C)CC1COc2ccc(NC(=O)c3ccc(-c4ccccc4)cc3)cc2O1` (stereo not shown) [Example 104, N-[3-[(Dimethylamino)methyl]-2,3-dihydro-1,4-benzodioxin-6-yl][1,1′-biphenyl]-4-carboxamide], the melting point was 124 to 126 °C.
In the case of `CN(C)CC1CCCc2cc(NC(=O)c3ccc(-c4ccc(Cl)cc4)cc3)ccc2C1` (stereo not shown) [Example 46] it was 173 to 175 °C; in that of `CN(C)CC1CCc2cc(NC(=O)c3ccc(-c4ccc(C(F)(F)F)cc4)cc3)ccc2C1` (stereo not shown) [Example 29, N-[6-[(N,N-Dimethylamino)methyl]-5,6,7,8-tetrahydro-2-naphthalenyl]-4′-(trifluoromethyl)[1,1-biphenyl]-4-carboxamide], 205 to 206 °C; in that of `CN(C)CC1=Cc2ccc(NC(=O)c3ccc(-c4ccccc4Cl)cc3)cc2CC1` [Example 50, 2′-Chloro-N-[6-[(dimethylamino)methyl]-7,8-dihydro-2-naphthalenyl][1,1′-biphenyl]-4-carboxamide], 145 to 147 °C.
`O=C(Nc1ccc2c(c1)CCC(CN1CCCC1)=C2)N1CC=C(c2ccc(F)cc2)CC1` [Example 158] gave a melting point of 206 to 207 °C.
In the case of `CN(C)CC1CCc2cc(NC(=O)c3ccc(-c4ccc(C5=NC(C)(C)CO5)cc4)cc3)ccc2C1` (stereo not shown) [Example 32, N-[6-[(N,N-Dimethylamino)methyl]-5,6,7,8-tetrahydro-2-naphthalenyl]-4′-(4,4-dimethyl-4,5-dihydro-1,3-oxazole 2-yl)[1,1′-biphenyl]-4-carboxamide] it was 185 to 187 °C; in that of `CN(C)CC1CCc2cc(NC(=O)c3ccc(NC(=O)Nc4ccccc4)cc3)ccc2C1` (stereo not shown) [Example 8, (4-Anilinocarbonyl)amino-N-[2-(N,N-dimethylamino)methyl-6-tetralinyl]benzamide], 216 to 217 °C (dec.); in that of `CN(C)CC1CCc2cc(NC(=O)c3ccc(-c4ccc(C(=O)O)cc4)cc3)ccc2C1` (stereo not shown) [Example 40, 4′-[[[6-[(N,N-Dimethylamino)methyl]-5,6,7,8-tetrahydro-2-naphthalenyl]amino]carbonyl][1,1′-biphenyl]-4-carboxylic acid], 143 °C (dec.).
Take `O=C(Nc1ccc2c(c1)CCC(CCN1CCCC1)=C2)c1ccc(-c2ccc(F)cc2)cc1` [Example 205, 4′-Fluoro-N-[6-[2-(1-pyrrolidinyl)ethyl]-7,8-dihydro-2-naphthalenyl][1,1′-biphenyl]-4-carboxamide]: the melting point was in the range of 187 to 189 °C.
The compound `O=C(Nc1ccc2c(c1)CCC(CN1CCCC1)C2)c1ccc(-c2ccc(F)cc2)cc1` (stereo not shown) [Example 97, 4′-Fluoro-N-[6-(1-pyrrolidinylmethyl)-5,6,7,8-tetrahydro-2-naphthalenyl][1,1′-biphenyl]-4-carboxamide] gave a melting point of 185 to 189 °C.
With `CN(C)CCNC(=O)Cc1ccc(NC(=O)Cc2ccccc2Cc2ccccc2)cc1` [Example 186, 2-(2-Benzylphenyl)-N-[4-[2-[[2-(dimethylamino)ethyl]amino]-2-oxoethyl]phenyl]acetamide] the figure was 115 to 117 °C; with `CN(C)CC1CCc2cc(NC(=O)c3ccc(-c4ccc([O-])cc4)cc3)ccc2C1.[Na+]` (stereo not shown) [Example 19, Sodium salt of N-[6-[(N,N-dimethylamino)methyl]-5,6,7,8-tetrahydro-2-naphthalenyl]-4′-oxy[1,1′-biphenyl]-4-carboxamide], 246 to 248 °C; with `CN(C)CCNC(=O)Cc1ccc(NC(=O)CCCc2c[nH]c3ccccc23)cc1` [Example 189, N-[4-[2-[[2-(Dimethylamino)ethyl]amino]-2-oxoethyl]phenyl]-4-(1H-indol-3-yl)butanamide], 132 to 133 °C.
In turn, `O=C(Nc1ccc2c(c1)CCC(CN1CCCC1)=C2)N1CCC(c2ccc(Cl)cc2)CC1` [Example 165, 4-(4-Chlorophenyl)-N-[6-(1-pyrrolidinylmethyl)-7,8-dihydro-2-naphthalenyl]-1-piperidinecarboxamide] yielded a melting point of 194 to 195 °C.
Take `O=C(Nc1ccc2c(c1)CCC(CN1CCCC1)=C2)c1ccc(-c2ccccc2)nc1` [Example 153, 6-Phenyl-N-[6-(1-pyrrolidinylmethyl)-7,8-dihydro-2-naphthalenyl]nicotinamide]: the melting point lay within 186 to 187 °C.
For the compound `O=C(Nc1ccc2c(c1)CCC(CN1CCCC1)=C2)c1ccc(-c2ccccc2)cc1` [Example 94, N-[6-(1-Pyrrolidinylmethyl)-7,8-dihydro-2-naphthalenyl][1,1′-biphenyl]-4-carboxamide], the melting point lay in the range of 176 to 177 °C.
As to `CN(C)CC1Cc2ccc(NC(=O)c3ccc(-c4ccc(Cl)cc4)cc3)cc2C1` (stereo not shown) [Example 43, 4′-Chloro-N-[2-[(dimethylamino)methyl]-2,3-dihydro-1H-inden-5-yl][1,1′-biphenyl]-4-carboxamide], the melting point is 192 to 194 °C.
With `Cl.O=C(Nc1ccc(CC2CCCNC2)cc1)c1ccc(-c2ccc(Cl)cc2)cc1` (stereo not shown), the melting point is 200 °C (dec.).
With `CN(C(=O)c1ccc(-c2ccc(F)cc2)cc1)c1ccc2c(c1)CCC(CN1CCCC1)=C2` (as salt: hydrochloride) [Example 226, 4′-Fluoro-N-methyl-N-[6-(1-pyrrolidinylmethyl)-7,8-dihydro-2-naphthalenyl][1,1′-biphenyl]-4-carboxamide Hydrochloride], the melting point is 201 to 203 °C.
Turning to `O=C(Nc1ccc2c(c1)CCC(CN1CCCC1)C2)c1ccc(-c2ccc(Cl)cc2)cc1` (stereo not shown) [Example 98, 4′-Chloro-N-[6-(1-pyrrolidinylmethyl)-5,6,7,8-tetrahydro-2-naphthalenyl][1,1′-biphenyl]-4-carboxamide], the melting point was 206 to 209 °C.
For `CN(C)CCNC(=O)Cc1ccc(NC(=O)c2ccc(C(=O)c3ccccc3)cc2)cc1` [Example 196, 4-Benzoyl-N-[4-[2-[[2-(dimethylamino)ethyl]amino]-2-oxoethyl)phenyl]benzamide], the melting point is 173 to 175 °C (dec.).
As for `CN(C)CC1CCc2cc(NC(=O)c3ccc(-c4ccc(N(C)C)cc4)cc3)ccc2C1` (stereo not shown) [Example 37, 4′-(N,N-Dimethylamino)-N-[6-[(N,N-dimethylamino)methyl]-5,6,7,8-tetrahydro-2-naphthalenyl][1,1′-biphenyl)-4-carboxamide], the melting point lay in the range of 212 to 213 °C.
With `CN(C)CC1=Cc2ccc(NC(=O)c3ccc(-c4ccc(F)cc4)nc3)cc2CC1` [Example 151], the melting point is 216 to 219 °C.
For the compound `O=C(NCCN1CCCC1)c1ccc(NC(=O)c2ccc(-c3ccccc3)cc2)cc1` [compound 23], the melting point was 241 to 245 °C (dec.).
On to `CNc1ccc(-c2ccc(C(=O)Nc3ccc4c(c3)CCC(CN(C)C)C4)cc2)cc1` (stereo not shown) [Example 38, N-[6-[(N,N-Dimethylamino)methyl]-5,6,7,8-tetrahydro-2-naphthalenyl]-4′-(methylamino)[1,1′-biphenyl]-4-carboxamide], for which the melting point was in the range of 163 to 165 °C.
In the case of `CN(C)CCC1CCc2cc(NC(=O)c3ccc(-c4ccccc4)cc3)ccc2C1` (stereo not shown) [Example 209, N-[6-[2-(Dimethylamino)ethyl]-5,6,7,8-tetrahydro-2-naphthalenyl][1,1′-biphenyl]-4-carboxamide] it was 112 to 114 °C; in that of `CN(C)CC1CCc2cc(NC(=O)N3CCC(c4ccc(F)cc4)CC3)ccc2C1O` (stereo not shown) [Example 203, N-[6-[(Dimethylamino)methyl]-5-hydroxy-5,6,7,8-tetrahydro-2-naphthalenyl]-4-(4-fluorophenyl)-1-piperidinecarboxamide], 160 to 163 °C; in that of `CN(C)CC1CCc2cc(NS(=O)(=O)c3ccc(-c4ccccc4)cc3)ccc2C1.Cl` (stereo not shown), 168 to 170 °C.
In the case of `O=C(Nc1ccc2c(c1)CCC(CN1CCCC1)=C2)c1ccc(-c2ccc(F)cc2)cc1` [Example 95, 4′-Fluoro-N-[6-(1-pyrrolidinylmethyl)-7,8-dihydro-2-naphthalenyl][1,1′-biphenyl]-4-carboxamide], the melting point is 189 to 192 °C.
In the case of `CN(C)CCNC(=O)Cc1ccc(NC(=O)CCCc2nc(-c3cc4ccccc4o3)no2)cc1` [Example 182, 4-[3-(1-Benzofuran-2-yl)-1,2,4-oxadiazol-5-yl]-N-[4-[2-[[2-(dimethylamino)ethyl]amino]-2-oxoethyl]phenyl]butanamide], the melting point was in the range of 161 to 163 °C.
`CN(C)CC1=Cc2ccc(NC(=O)c3ccc(-c4ccc(F)cc4)cc3)cc2CC1` [Example 42, 4′-Fluoro-N-[6-[(N,N-dimethylamino)methyl]-7,8-dihydro-2-naphthalenyl][1,1′-biphenyl]-4-carboxamide] had a melting point of 190 to 193 °C.
Turning to `COc1ccc(-c2ccc(C(=O)Nc3ccc4c(c3)OCC(CN3CCCC3)=C4)cn2)cc1` [Example 141, 6-(4-Methoxyphenyl)-N-[3-(1-pyrrolidinylmethyl)-2H-chromen-7-yl]nicotinamide], the melting point lay in the range of 243 to 245 °C.
In the case of `CC1=C(CN2CCCC2)CCc2cc(NC(=O)c3ccc(-c4ccc(F)cc4)cc3)ccc21` [Example 229, 4′-Fluoro-N-[5-methyl-6-(1-pyrrolidinylmethyl)-7,8-dihydro-2-naphthalenyl][1,1′-biphenyl]-4-carboxamide] it was 199 to 201 °C.
Take `CN(C)CC1=Cc2ccc(C(=O)Nc3ccc(Br)cc3)cc2CC1` [Example 101, N-(4-Bromophenyl)-6-[(dimethylamino)methyl]-7,8-dihydro-2-naphthalenecarboxamide]: the melting point was 175 to 179 °C.
With `CN(C)CC1CCc2cc(NC(=O)c3ccc(-c4ccc5c(c4)OCO5)cc3)ccc2C1` (stereo not shown) [Example 14] the figure was 174 to 176 °C.
In the case of `COc1ccc(C2CCN(C(=O)Nc3ccc4c(c3)CCC(CN3CCN(C)CC3)=C4)CC2)cc1` [Example 242, 4-(4-Methoxyphenyl)-N-[6-[(4-methyl-1-piperazinyl)methyl]-7,8-dihydro-2-naphthalenyl]-1-piperidinecarboxamide], the melting point lay within 198 to 200 °C.
